# Measurements published in patent US6511961B1, “Cyclic peptides and medicinal use thereof” (Toray Industries, Inc., priority 1997, dated 2003).
# Where two headings read alike, the source gives them in different places. Bridge positions count the residues as written; N and C are the ends. Square brackets hold non-standard residues; d marks the D form. Peptide text beside a SMILES is read from it. 2Nal = N[C@@H](Cc1ccc2ccccc2c1)C(=O)O; Met(O2) = CS(=O)(=O)CC[C@H](N)C(=O)O; 2Pal = N[C@@H](Cc1ccccn1)C(=O)O; Tic = O=C(O)[C@@H]1Cc2ccccc2CN1; Chg = N[C@H](C(=O)O)C1CCCCC1
# How the values were obtained:
# [1] = 20-membered ring
# Stability in mouse serum = type: in vitro ADME
# [2] = molecular target: VLA-4-IgG chimeric protein (Homo sapiens, UniProt P05556+P13612); assay: Inhibition of binding of CS-1 peptide and VLA-4-IgG chimeric protein; conditions: binding of immobilized CS-1 peptide and VLA-4-IgG chimeric protein, absorbance at 490 nm
# Text: As the method for investigating the adhesion inhibiting activity in terms of VLA-4, there can be used an adhesion measuring system for cells such as Ramos cells and Jurkat cells, and fibronectin or a fibronectin fragment, for example a peptide consisting of the CS-1 sequence (Gly Pro Glu Ile Leu Asp Val Pro Ser Thr SEQ ID NO:59) [hereinafter referred to as the CS-1 peptide], immobilized on an immunoplate. Furthermore, as another method, there can be used a binding measurement system for VLA-4 protein and fibronectin or a fibronectin fragment, for example the CS-1 peptide, immobilized on an immunoplate or the like. In the present invention, it is preferred that the inhibiting activity of a compound be evaluated in a binding measurement system for a VLA-4 and immunoglobulin chimeric protein (VLA-4-IgG chimeric protein) and a peptide containing the CS-1 sequence (WO98/032771), but there is no restriction thereto. Reference here to VLA-4-IgG chimeric protein means a heterodimer complex molecule formed when a VLA-4 α4 and immunoglobulin chimeric protein (referred to hereinafter as the VLAα4.IgG chimeric protein) and a VLA-4 β1 and immunoglobulin chimeric protein (referred to hereinafter as the VLAβ1.IgG chimeric protein) undergo association. Moreover, for the immunoglobulin, there can be used heavy or light chains of IgG, IgM or the like, and in the present invention IgG1 heavy chains were used. When observing the cyclic peptide inhibition effect, it is best to use a previously prepared mixture of the α4.IgG heavy chain-β1.IgG heavy chain chimeric protein heterodimer complex and the test material.
# Cyclic peptide inhibiting effect in terms of the binding of CS-1 peptide and VLA-4-IgG chimeric protein.
# A conjugate of the peptide containing the CS-1 sequence shown in SEQ ID NO:57 and rabbit IgG (Sigma) was prepared in accordance with the literature (Humphries, M. J. et al, J. Biol. Chem., 262, 6886-6892 (1987)). This was diluted with PBS(−), and 100 μl/well quantities introduced into a 96 well immunoplate (NUNC), after which this was left to stand for 16 hours at 4° C. and the CS-1 peptide immobilized.
# Gys Lue His Gly Pro Glu Ile Leu Asp Val Pro Ser Thr (SEQ ID NO:57)
# Next, after washing the interior of the wells twice with PBS(−), 300 μl/well quantities of 1% BSA-PBS solution which had been heat treated for 10 minutes at 80° C. were introduced, then left for 3 hours at 4° C., after which the solution inside the wells was removed by suction.
# Each cyclic peptide and VLA-4-IgG chimeric protein (100 μl) were reacted together beforehand for 20 minutes at room temperature, and then reaction carried out for 3 hours at 30° C. with the CS-1 peptide. Subsequently, the non-bonded VLA-4-IgG chimeric protein was removed by suction, and washed away twice with TBS buffer (150 mM NaCl, 25 mM Tris-HCl, 1 mM MnCl2 pH 7.4) containing 0.1% BSA. To the bonded VLA-4-IgG chimeric protein, biotin labelled anti-human IgG antibody (Vector) as the first antibody was added, and then avidin labelled horseradish peroxidase (Sigma) was added as the second antibody and reaction carried out. Following the reaction, o-phenylenediamine was added as a substrate and colour development effected, and then the absorbance measured at 490 nm. From this absorbance, the binding inhibition activity due to the respective peptides was determined.
# [3] = disulfide bond, K3[Fe(CN)6]/NH3 pH 7.5-8, water
# [4] = amide bond, with chain assembly
# Chain of VLA-4-IgG chimeric protein (P13612 34-1032, change not shown): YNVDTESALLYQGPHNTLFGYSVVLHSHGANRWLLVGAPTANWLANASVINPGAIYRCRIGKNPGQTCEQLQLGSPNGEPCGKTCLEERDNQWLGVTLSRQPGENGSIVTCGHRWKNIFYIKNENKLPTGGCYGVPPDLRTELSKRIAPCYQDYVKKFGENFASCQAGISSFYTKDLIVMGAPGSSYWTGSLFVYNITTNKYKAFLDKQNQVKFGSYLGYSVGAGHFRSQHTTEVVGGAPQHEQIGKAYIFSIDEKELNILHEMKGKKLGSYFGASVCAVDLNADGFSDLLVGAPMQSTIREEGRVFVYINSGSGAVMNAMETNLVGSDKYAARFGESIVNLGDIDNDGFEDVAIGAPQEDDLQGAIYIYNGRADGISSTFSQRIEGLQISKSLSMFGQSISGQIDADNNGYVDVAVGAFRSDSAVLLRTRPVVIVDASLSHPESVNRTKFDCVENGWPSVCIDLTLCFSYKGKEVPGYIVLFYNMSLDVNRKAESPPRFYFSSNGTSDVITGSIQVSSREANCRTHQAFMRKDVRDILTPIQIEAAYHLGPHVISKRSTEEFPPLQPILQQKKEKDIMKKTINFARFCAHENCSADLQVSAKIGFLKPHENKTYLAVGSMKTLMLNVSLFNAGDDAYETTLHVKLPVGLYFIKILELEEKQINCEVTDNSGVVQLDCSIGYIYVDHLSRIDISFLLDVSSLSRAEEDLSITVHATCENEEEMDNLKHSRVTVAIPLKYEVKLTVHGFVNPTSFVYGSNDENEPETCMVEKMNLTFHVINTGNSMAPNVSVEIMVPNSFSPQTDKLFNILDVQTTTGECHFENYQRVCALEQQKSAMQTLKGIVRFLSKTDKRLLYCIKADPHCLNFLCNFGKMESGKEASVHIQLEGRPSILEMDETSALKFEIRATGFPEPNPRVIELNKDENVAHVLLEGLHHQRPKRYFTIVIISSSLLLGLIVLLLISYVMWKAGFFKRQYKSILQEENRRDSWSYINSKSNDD
# Chain of VLA-4-IgG chimeric protein (P05556 21-798, change not shown): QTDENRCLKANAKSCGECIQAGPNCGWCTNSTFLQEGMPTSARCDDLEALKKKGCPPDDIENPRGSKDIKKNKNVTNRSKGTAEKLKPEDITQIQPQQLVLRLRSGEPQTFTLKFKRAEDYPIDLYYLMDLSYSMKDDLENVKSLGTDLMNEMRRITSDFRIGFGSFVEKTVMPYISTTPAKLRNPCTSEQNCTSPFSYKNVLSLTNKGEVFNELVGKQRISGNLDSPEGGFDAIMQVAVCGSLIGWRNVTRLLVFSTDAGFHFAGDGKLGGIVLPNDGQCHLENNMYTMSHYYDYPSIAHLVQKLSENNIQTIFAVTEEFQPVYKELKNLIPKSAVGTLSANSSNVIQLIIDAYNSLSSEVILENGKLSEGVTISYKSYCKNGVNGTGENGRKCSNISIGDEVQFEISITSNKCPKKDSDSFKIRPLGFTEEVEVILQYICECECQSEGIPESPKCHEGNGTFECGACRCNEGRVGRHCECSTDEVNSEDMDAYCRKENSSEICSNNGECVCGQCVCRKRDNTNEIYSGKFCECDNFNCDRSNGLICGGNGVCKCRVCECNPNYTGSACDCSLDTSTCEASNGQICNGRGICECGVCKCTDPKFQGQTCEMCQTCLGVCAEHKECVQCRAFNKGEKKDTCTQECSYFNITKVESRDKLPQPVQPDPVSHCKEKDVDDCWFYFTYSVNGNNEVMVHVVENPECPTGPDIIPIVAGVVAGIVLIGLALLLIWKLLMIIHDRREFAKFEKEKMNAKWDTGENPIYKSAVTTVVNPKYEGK
compound,measurement,setting,value
CC(C)C[C@@H]1NC(=O)[C@H](Cc2c[nH]cn2)NC(=O)[C@H](CC(=O)O)NC(=O)[C@H](C(C)C)NC(=O)[C@@H](N)CSSC[C@@H](C(=O)O)NC1=O [C*VDHLC*],"ring closure, yield after HPLC","[1]; from H-Cys(Acm)-Val-Asp-His-Leu-Cys(Acm)-OH, disulfide bond, AgOTf/anisole/TFA, then DMSO/HCl, 50% DMSO-1N HCl, 2 steps",75%
CC[C@@H](C)[C@H]1NC(=O)[C@@H](N)CSSC[C@@H](C(=O)O)NC(=O)[C@H](CC(C)C)NC(=O)[C@H](Cc2c[nH]cn2)NC(=O)[C@H](CC(=O)O)NC1=O [C*dIDHLC*],"ring closure, yield after HPLC","[1]; from H-Cys(Acm)-dIle-Asp-His-Leu-Cys(Acm)-OH, disulfide bond, AgOTf/anisole/TFA, then DMSO/HCl, 50% DMSO-1N HCl, 2 steps",72%
CC(C)C[C@@H]1NC(=O)[C@H](CO)NC(=O)[C@H](CC(=O)O)NC(=O)[C@@H](CC(C)C)NC(=O)[C@@H](N)CSSC[C@@H](C(=O)O)NC1=O [C*dLDSLC*],"ring closure, yield after HPLC","[1]; from H-Cys(Acm)-dLeu-Asp-Ser-Leu-Cys(Acm)-OH, disulfide bond, AgOTf/anisole/TFA, then DMSO/HCl, 50% DMSO-1N HCl, 2 steps",77%
CC(C)C[C@@H]1NC(=O)[C@@H](CO)NC(=O)[C@H](CC(=O)O)NC(=O)[C@@H](CC(C)C)NC(=O)[C@@H](N)CSSC[C@@H](C(=O)O)NC1=O [C*dLDdSLC*],"ring closure, yield after HPLC","[1]; from H-Cys(Acm)-dLeu-Asp-dSer-Leu-Cys(Acm)-OH, disulfide bond, AgOTf/anisole/TFA, then DMSO/HCl, 50% DMSO-1N HCl, 2 steps",62%
CC(C)C[C@@H]1NC(=O)[C@H](Cc2c[nH]cn2)NC(=O)[C@H](CC(=O)O)NC(=O)[C@@H](c2ccccc2)NC(=O)[C@@H](N)CSSC[C@@H](C(=O)O)NC1=O [C*dPhgDHLC*],"ring closure, yield after HPLC","[1]; from H-Cys(Acm)-dPhg-Asp-His-Leu-Cys(Acm)-OH, disulfide bond, AgOTf/anisole/TFA, then DMSO/HCl, 50% DMSO-1N HCl, 2 steps",55%
CC[C@H](C)[C@@H]1NC(=O)CCSSC[C@@H](C(=O)O)NC(=O)[C@H](CC(C)C)NC(=O)[C@H](Cc2c[nH]cn2)NC(=O)[C@H](CC(=O)O)NC1=O [Mpr*IDHLC*],"ring closure, yield after HPLC","[1]; from Mpr(Acm)-Ile-Asp-His-Leu-Cys(Acm)-OH, disulfide bond, AgOTf/anisole/TFA, then DMSO/HCl, 50% DMSO-1N HCl, 2 steps",33%
CC[C@H](C)[C@@H]1NC(=O)[C@@H](N)C(C)(C)SSC[C@@H](C(=O)O)NC(=O)[C@H](CC(C)C)NC(=O)[C@H](Cc2c[nH]cn2)NC(=O)[C@H](CC(=O)O)NC1=O [Pen*IDHLC*],"ring closure, yield after HPLC","[1]; from H-Pen(Acm)-Ile-Asp-His-Leu-Cys(Acm)-OH, disulfide bond, AgOTf/anisole/TFA, then DMSO/HCl, 50% DMSO-1N HCl, 2 steps",30%
"CC[C@H](C)[C@@H]1NC(=O)[C@@H](N)CSSC[C@@H](C(=O)O)NC(=O)[C@H](CC(C)C)NC(=O)[C@H](Cc2c[nH]cn2)NC(=O)[C@H](CCS(C)(=O)=O)NC1=O [Sequence Number 17, C*IMet(O2)HLC*] (H-CI[Met(O2)]HLC-OH; disulfide 1-6; N-terminus and C-terminus assumed)",stability in mouse serum,Stability in mouse serum,stable for 24 hours
CC[C@H](C)[C@@H]1NC(=O)[C@@H](N)CSSC[C@@H](C(=O)O)NC(=O)[C@H](CC(C)C)NC(=O)[C@H](Cc2c[nH]cn2)NC(=O)[C@H](CC(=O)O)NC1=O [compound 4] (H-CIDHLC-OH; disulfide 1-6),IC50,[2],1200 nM
CC[C@H](C)[C@@H]1NC(=O)[C@@H](N)CSSC[C@@H](C(=O)O)NC(=O)[C@H](CC(C)C)NC(=O)[C@H](Cc2c[nH]cn2)NC(=O)[C@H](CCC(=O)O)NC1=O [compound 9] (H-CIEHLC-OH; disulfide 1-6),IC50,[2],1600 nM
CC[C@H](C)[C@@H]1NC(=O)[C@@H](N)CSSC[C@@H](C(=O)O)NC(=O)[C@H](CC(C)C)NC(=O)[C@H](Cc2c[nH]cn2)NC(=O)[C@H](CCS(C)(=O)=O)NC1=O [compound 17] (H-CI[Met(O2)]HLC-OH; disulfide 1-6),IC50,[2],800 nM
CC(C)C[C@@H]1NC(=O)[C@H](Cc2c[nH]cn2)NC(=O)[C@H](CC(=O)O)NC(=O)[C@H](C2CCCCC2)NC(=O)[C@@H](N)CSSC[C@@H](C(=O)O)NC1=O [compound 22] (H-C[Chg]DHLC-OH; disulfide 1-6),IC50,[2],120 nM
CC(C)C[C@@H]1NC(=O)[C@H](Cc2c[nH]cn2)NC(=O)[C@H](CC(=O)O)NC(=O)[C@@H]2Cc3ccccc3CN2C(=O)[C@@H](N)CSSC[C@@H](C(=O)O)NC1=O [compound 25] (H-C[Tic]DHLC-OH; disulfide 1-6),IC50,[2],650 nM
CC[C@H](C)[C@@H]1NC(=O)[C@@H](N)CSSC[C@@H](C(=O)O)NC(=O)[C@H](CC(C)C)NC(=O)[C@H](Cc2ccccn2)NC(=O)[C@H](CC(=O)O)NC1=O [compound 29] (H-CID[2Pal]LC-OH; disulfide 1-6),IC50,[2],500 nM
CC[C@H](C)[C@@H]1NC(=O)[C@@H](N)CSSC[C@@H](C(=O)O)NC(=O)[C@H](CC(C)C)NC(=O)[C@H](Cc2c[nH]c3ccccc23)NC(=O)[C@H](CC(=O)O)NC1=O [compound 31] (H-CIDWLC-OH; disulfide 1-6),IC50,[2],450 nM
CC[C@H](C)[C@@H]1NC(=O)[C@@H](N)CSSC[C@@H](C(=O)O)NC(=O)[C@H](CC(C)C)NC(=O)[C@H](Cc2ccc3ccccc3c2)NC(=O)[C@H](CC(=O)O)NC1=O [compound 34] (H-CID[2Nal]LC-OH; disulfide 1-6; N-terminus and C-terminus assumed),IC50,[2],600 nM
CC[C@H](C)[C@@H]1NC(=O)[C@H](Cc2ccccc2)NC(=O)[C@H](CC(=O)O)NC(=O)[C@H]([C@@H](C)CC)NC(=O)[C@@H](N)CSSC[C@@H](C(=O)O)NC1=O [compound 48] (H-CIDFIC-OH; disulfide 1-6),IC50,[2],250 nM
CC[C@H](C)[C@@H]1NC(=O)[C@H](N)CSSC[C@@H](C(=O)O)NC(=O)[C@H](CC(C)C)NC(=O)[C@H](Cc2c[nH]cn2)NC(=O)[C@H](CC(=O)O)NC1=O [dC*IDHLC*],"ring closure, yield after HPLC","[1]; from H-dCys(Acm)-Ile-Asp-His-Leu-Cys(Acm)-OH, disulfide bond, AgOTf/anisole/TFA, then DMSO/HCl, 50% DMSO-1N HCl, 2 steps",39%
C*IDSLC*,"ring closure, yield after HPLC",[1]; [3],62%
C*IDTLC*,"ring closure, yield after HPLC",[1]; [3],70%
C*IDYLC*,"ring closure, yield after HPLC","[1]; disulfide bond, K3[Fe(CN)6]/NH3 pH 7.5-8, water, 0.43 mM",61%
D(CO—)ChgMet(O2)PhgLDpr(NH—),"ring closure, yield after HPLC",[1]; [4],7%
D(CO—)ChgMet(O2)dPhgLDpr(NH—),"ring closure, yield after HPLC",[1]; [4],10%
